Biological target: T1, LpxL (Escherichia coli, UniProt P0ACV0)
T1 sequence (P0ACV0 1-306): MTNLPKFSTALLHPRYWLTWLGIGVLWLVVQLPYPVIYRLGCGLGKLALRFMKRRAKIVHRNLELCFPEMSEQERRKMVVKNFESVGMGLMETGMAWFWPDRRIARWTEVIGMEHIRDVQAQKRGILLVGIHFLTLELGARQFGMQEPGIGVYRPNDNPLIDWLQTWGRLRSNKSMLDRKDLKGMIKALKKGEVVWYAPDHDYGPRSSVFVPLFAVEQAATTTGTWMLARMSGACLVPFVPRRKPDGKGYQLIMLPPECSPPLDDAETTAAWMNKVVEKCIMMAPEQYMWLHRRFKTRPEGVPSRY
Experiment: […] TLC acyltransferase assay, PhosphorImager
Assay type: biochemical
Conditions: read-out: apparent KM; 90 µM lauroyl-ACP (saturating); 0.1% Triton X-100, 0.1 mg/mL BSA, 5 mM MgCl2, 50 mM NaCl, 50 mM HEPES pH 7.5; 30 °C (standard assay); labelled compound

Structure (SMILES): CCCCCCCCCCC[C@@H](O)CC(=O)N[C@H]1[C@H](OC[C@H]2O[C@H](OP(=O)(O)O)[C@H](NC(=O)C[C@H](O)CCCCCCCCCCC)[C@@H](OC(=O)C[C@H](O)CCCCCCCCCCC)[C@@H]2O)O[C@H](CO[C@]2(C(=O)O)C[C@@H](O[C@]3(C(=O)O)C[C@@H](O)[C@@H](O)[C@@H]([C@H](O)CO)O3)[C@@H](O)[C@@H]([C@H](O)CO)O2)[C@@H](OP(=O)(O)O)[C@@H]1OC(=O)C[C@H](O)CCCCCCCCCCC [Kdo2-lipid IVA]
- Km: 15 ± 3 µM

Reference: article PMC2664092 (Biochemistry, 2008)
